Measured values: US20240024520A1, “AUTONOMOUS KNOB DOMAIN PEPTIDES” (UCB BIOPHARMA SRL, priority 2020, published 2024)
Bridge positions count the residues as written; N and C are the ends. Peptide text beside a SMILES is read from it.

Target: C5 (Homo sapiens, UniProt P01031)
Experiment: Biacore multi-cycle kinetics on human C5
Format: binding
Settings: for mean stoichiometric ratio: measured Rmax divided by theoretical Rmax; for mean stoichiometric ratio / koff / kon: n = 3 experiments; for koff / kon: multi-cycle kinetics; for koff: read-out: mean Koff; for kon: read-out: mean Kon
Description: Binding of knob domain peptides to human C5 was measured by SPR, using a multi-cycle kinetics method as follows:
Kinetics were measured using a Biacore 8K (GE Healthcare) with a CM5 chip, which was prepared as follows: EDC/NHS was mixed at 1:1 ratio (flow rate, 10 μL/min; contact time, 30 seconds), human C5 protein at 1 μg/mL in pH 4.5 sodium-acetate buffer, were injected over flow cell one only (flow rate, 10 μL/min; contact time, 60 seconds). Final immobilization levels in the range of 2000-3000 response units (RU) were obtained, to yield theoretical Rmax values of ˜50-60 RU. Serial dilutions of peptide were prepared in HBS-EP buffer and injected (flow rate, 30 μL/min; contact time, 240 seconds; dissociation time, 6000 seconds). After each injection, the surface was regenerated with two sequential injections of 2M MgCl2 (flow rate, […]; contact time, 30 seconds). Binding to the reference surface was subtracted, and the data were fitted to a single site binding model, using Biacore evaluation software.

Chain of C5 (P01031 19-1676): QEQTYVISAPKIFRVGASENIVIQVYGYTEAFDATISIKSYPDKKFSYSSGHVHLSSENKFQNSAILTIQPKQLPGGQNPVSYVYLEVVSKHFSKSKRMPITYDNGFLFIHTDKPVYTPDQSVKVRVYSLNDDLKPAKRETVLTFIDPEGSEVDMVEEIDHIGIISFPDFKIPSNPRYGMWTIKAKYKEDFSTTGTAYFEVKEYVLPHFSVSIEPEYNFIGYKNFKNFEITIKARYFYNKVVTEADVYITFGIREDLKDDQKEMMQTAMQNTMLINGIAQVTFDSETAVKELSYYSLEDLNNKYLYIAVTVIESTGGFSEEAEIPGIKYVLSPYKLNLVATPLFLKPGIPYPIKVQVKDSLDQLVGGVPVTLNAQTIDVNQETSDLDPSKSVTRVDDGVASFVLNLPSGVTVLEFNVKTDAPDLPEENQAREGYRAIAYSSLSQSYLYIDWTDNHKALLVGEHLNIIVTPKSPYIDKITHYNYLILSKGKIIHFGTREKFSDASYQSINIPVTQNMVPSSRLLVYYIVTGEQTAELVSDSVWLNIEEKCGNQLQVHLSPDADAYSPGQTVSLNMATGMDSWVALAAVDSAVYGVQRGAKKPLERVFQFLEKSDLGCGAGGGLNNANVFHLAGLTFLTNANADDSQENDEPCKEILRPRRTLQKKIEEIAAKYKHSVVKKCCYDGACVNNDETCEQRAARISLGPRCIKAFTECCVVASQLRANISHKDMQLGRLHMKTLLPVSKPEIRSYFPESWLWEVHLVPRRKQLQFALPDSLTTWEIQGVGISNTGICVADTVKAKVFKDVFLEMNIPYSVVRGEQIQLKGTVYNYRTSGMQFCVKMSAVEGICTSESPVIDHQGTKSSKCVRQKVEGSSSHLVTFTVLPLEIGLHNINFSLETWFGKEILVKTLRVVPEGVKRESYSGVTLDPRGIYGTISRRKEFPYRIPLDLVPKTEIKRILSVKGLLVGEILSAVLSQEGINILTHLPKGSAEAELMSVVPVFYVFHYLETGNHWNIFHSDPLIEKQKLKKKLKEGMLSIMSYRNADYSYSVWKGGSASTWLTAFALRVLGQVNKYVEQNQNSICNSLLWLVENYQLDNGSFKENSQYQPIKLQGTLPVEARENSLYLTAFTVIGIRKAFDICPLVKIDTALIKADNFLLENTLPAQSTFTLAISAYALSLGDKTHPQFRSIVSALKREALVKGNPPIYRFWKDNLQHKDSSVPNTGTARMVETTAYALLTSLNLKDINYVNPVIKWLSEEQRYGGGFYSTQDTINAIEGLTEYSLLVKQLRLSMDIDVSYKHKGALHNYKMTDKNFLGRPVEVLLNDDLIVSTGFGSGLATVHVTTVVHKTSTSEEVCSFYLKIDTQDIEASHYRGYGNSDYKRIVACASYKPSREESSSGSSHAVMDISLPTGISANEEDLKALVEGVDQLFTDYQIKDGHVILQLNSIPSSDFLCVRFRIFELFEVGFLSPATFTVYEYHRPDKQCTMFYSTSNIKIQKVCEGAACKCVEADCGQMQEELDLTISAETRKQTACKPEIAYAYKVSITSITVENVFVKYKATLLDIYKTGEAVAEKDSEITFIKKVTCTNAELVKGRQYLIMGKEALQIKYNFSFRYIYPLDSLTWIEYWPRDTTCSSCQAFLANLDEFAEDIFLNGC

| Molecule | mean stoichiometric ratio | koff [s⁻¹] | kon [M⁻¹ s⁻¹] | binding to human C5 (chemical knob domains and variants, result in words) |
| --- | --- | --- | --- | --- |
| CC[C@H](C)[C@@H]1NC(=O)[C@H](C)NC(=O)[C@H](C(C)C)NC(=O)CNC(=O)[C@@H]2CSSC[C@@H](C(=O)NCC(=O)N[C@@H](Cc3c[nH]cn3)C(=O)N[C@@H](Cc3ccccc3)C(=O)N[C@@H](CC(C)C)C(=O)N[C@@H](CC(N)=O)C(=O)N[C@@H](CO)C(=O)NCC(=O)N3CCC[C@H]3C(=O)N[C@@H](CC(N)=O)C(=O)N[C@H](C(=O)N[C@@H](CO)C(=O)N3CCC[C@H]3C(=O)N[C@@H](Cc3ccc(O)cc3)C(=O)N[C@H](C(=O)N[C@@H](CO)C(=O)N[C@H](C(=O)O)[C@@H](C)O)C(C)C)[C@@H](C)CC)NC(=O)CNC(=O)[C@H](Cc3c[nH]c4ccccc34)NC(=O)[C@H](CCCNC(=N)N)NC(=O)CNC(=O)[C@H](CSSC[C@H](NC(=O)[C@@H](N)[C@@H](C)O)C(=O)N3CCC[C@H]3C(=O)N[C@@H](CCC(=O)O)C(=O)NCC(=O)N[C@@H](C)C(=O)N[C@@H](CO)C(=O)N[C@@H](CCC(=O)O)C(=O)N2)NC(=O)[C@H](CCC(=O)O)NC(=O)[C@H](Cc2ccc(O)cc2)NC(=O)CNC(=O)[C@H](Cc2ccc(O)cc2)NC1=O [K92chemFE W6A] (H-TCPEGASECGVAIYGYECGRWGCGHFLNSGPNISPYVST-OH; disulfide 2-18, 9-23; N-terminus assumed) | 0.60 | 0.00157 | 7980 | – |
| CC[C@H](C)[C@@H]1NC(=O)[C@H](C)NC(=O)[C@H](C(C)C)NC(=O)CNC(=O)[C@@H]2CSSC[C@@H](C(=O)NCC(=O)N[C@@H](Cc3c[nH]cn3)C(=O)N[C@@H](Cc3ccccc3)C(=O)N[C@@H](CC(C)C)C(=O)N[C@@H](CC(N)=O)C(=O)N[C@@H](CO)C(=O)NCC(=O)N3CCC[C@H]3C(=O)N[C@@H](CC(N)=O)C(=O)N[C@H](C(=O)N[C@@H](CO)C(=O)N3CCC[C@H]3C(=O)N[C@@H](Cc3ccc(O)cc3)C(=O)N[C@H](C(=O)N[C@@H](CO)C(=O)N[C@H](C(=O)O)[C@@H](C)O)C(C)C)[C@@H](C)CC)NC(=O)CNC(=O)[C@H](Cc3c[nH]c4ccccc34)NC(=O)[C@H](CCCNC(=N)N)NC(=O)CNC(=O)[C@H](CSSC[C@H](NC(=O)[C@@H](N)[C@@H](C)O)C(=O)N3CCC[C@H]3C(=O)N[C@@H](CCC(=O)O)C(=O)NCC(=O)N[C@@H](Cc3c[nH]c4ccccc34)C(=O)N[C@@H](CO)C(=O)N[C@@H](CCC(=O)O)C(=O)N2)NC(=O)[C@H](CCC(=O)O)NC(=O)[C@H](C)NC(=O)CNC(=O)[C@H](Cc2ccc(O)cc2)NC1=O [K92chemFE Y16A] (H-TCPEGWSECGVAIYGAECGRWGCGHFLNSGPNISPYVST-OH; disulfide 2-18, 9-23; N-terminus assumed) | 0.66 | 0.786 | 1.56e+07 | – |
| K92 chemFE W21H: W21H mutant of K92chemFE (TCPEGWSECGVAIYGYECGRHGCGHFLNSGPNISPYVST) | – | – | – | much-lower loss of affinity |
| CC[C@H](C)[C@@H]1NC(=O)[C@H](C)NC(=O)[C@H](C(C)C)NC(=O)CNC(=O)[C@@H]2CSSC[C@@H](C(=O)NCC(=O)N[C@@H](Cc3c[nH]cn3)C(=O)N[C@@H](Cc3ccccc3)C(=O)N[C@@H](CC(C)C)C(=O)N[C@@H](CC(N)=O)C(=O)N[C@@H](CO)C(=O)NCC(=O)N3CCC[C@H]3C(=O)N[C@@H](CC(N)=O)C(=O)N[C@H](C(=O)N[C@@H](CO)C(=O)N3CCC[C@H]3C(=O)N[C@@H](Cc3ccc(O)cc3)C(=O)N[C@H](C(=O)N[C@@H](CO)C(=O)N[C@H](C(=O)O)[C@@H](C)O)C(C)C)[C@@H](C)CC)NC(=O)CNC(=O)[C@H](Cc3c[nH]c4ccccc34)NC(=O)[C@H](CCCNC(=N)N)NC(=O)CNC(=O)[C@H](CSSC[C@H](NC(=O)[C@@H](N)[C@@H](C)O)C(=O)N3CCC[C@H]3C(=O)N[C@@H](CCC(=O)O)C(=O)NCC(=O)N[C@@H](Cc3c[nH]c4ccccc34)C(=O)N[C@@H](CO)C(=O)N[C@@H](CCC(=O)O)C(=O)N2)NC(=O)[C@H](CCC(=O)O)NC(=O)[C@H](Cc2ccc(O)cc2)NC(=O)CNC(=O)[C@H](C)NC1=O [K92chemFE Y14A] (H-TCPEGWSECGVAIAGYECGRWGCGHFLNSGPNISPYVST-OH; disulfide 2-18, 9-23; N-terminus assumed) | 0.41 | 0.0001 | 27200 | – |
